Measurements published in patent US9650616B2, “Methods for increasing grain yield” (University of Florida Research Foundation, Inc., priority 2014, dated 2017).
Numbering of substitutions follows the chain as printed. pKd: −log10 of the molar value.

Key:
[1] = target: T1, maize endosperm AGPase, large subunit variant GGRV (Q96G, D161G, A443R, I285V; numbering of SEQ ID NO: 20) (Zea mays, UniProt P55241+Q84PF5, A443R/D161G/I285V/Q96G); experiment: Apparent kinetic constants with 3-PGA, 37° C., GGRV; type: biochemical; conditions: read-out: ATP Km
T1 sequence (P55241 46-516 A443R/D161G/I285V/Q96G): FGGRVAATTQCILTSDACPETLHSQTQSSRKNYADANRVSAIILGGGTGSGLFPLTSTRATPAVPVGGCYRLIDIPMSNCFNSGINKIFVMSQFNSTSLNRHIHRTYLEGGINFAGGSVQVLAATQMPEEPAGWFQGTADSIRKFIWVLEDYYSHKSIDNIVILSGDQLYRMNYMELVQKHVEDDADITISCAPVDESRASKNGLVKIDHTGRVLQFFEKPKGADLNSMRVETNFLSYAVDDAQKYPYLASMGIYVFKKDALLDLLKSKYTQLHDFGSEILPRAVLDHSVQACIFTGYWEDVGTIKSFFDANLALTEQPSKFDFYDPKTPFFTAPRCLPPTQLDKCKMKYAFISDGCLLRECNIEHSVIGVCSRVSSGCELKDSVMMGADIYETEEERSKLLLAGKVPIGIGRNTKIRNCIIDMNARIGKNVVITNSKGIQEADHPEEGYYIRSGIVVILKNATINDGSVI
T1 sequence (Q84PF5 1-474): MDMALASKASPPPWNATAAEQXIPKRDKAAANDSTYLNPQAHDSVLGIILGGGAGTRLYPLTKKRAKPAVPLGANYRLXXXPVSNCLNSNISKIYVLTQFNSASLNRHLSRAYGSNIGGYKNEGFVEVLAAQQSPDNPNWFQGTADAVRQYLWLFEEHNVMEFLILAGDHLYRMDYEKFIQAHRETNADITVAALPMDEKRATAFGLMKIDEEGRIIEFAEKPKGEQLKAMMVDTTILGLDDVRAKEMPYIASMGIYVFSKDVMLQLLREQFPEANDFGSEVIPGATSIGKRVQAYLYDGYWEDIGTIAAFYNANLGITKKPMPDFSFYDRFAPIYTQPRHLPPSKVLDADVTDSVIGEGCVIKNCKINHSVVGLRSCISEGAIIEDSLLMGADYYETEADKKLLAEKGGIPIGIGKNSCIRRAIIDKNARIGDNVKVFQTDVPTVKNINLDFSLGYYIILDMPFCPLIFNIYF
Excerpt: (§1) The small and large subunit plasmids of maize endosperm AGPase (pMONcBt2 and pMONcSh2, respectively) (Giroux et al., 1996) were expressed in E. coli AC70R1-504 cells (Iglesias et al., 1993) as previously described (Boehlein et al., 2008).
(§2) An endpoint assay was used to determine the rate of the AGPase reaction by coupling the formation of PPi to a decrease in NADH concentration (Boehlein et al., 2008). […] The Michaelis constants (Km) were obtained by varying one substrate in the presence of saturating concentrations of the second substrate. The activation constants were obtained by varying the activator at fixed levels of both substrates. All reactions were performed at 37° C. and mixes were prewarmed before starting the reaction with enzyme. […] The absorbance at 340 nm was monitored after 30 min and the amount of PPi produced was determined from a standard curve using PPi in complete reaction mixtures lacking AGPase. Blank samples contained complete reaction mixtures without enzyme and the change in absorbance between the blank and the reaction was used to calculate the amount of PPi produced. […]
(§3) The apparent Michaelis constant and maximum velocity of each reaction was calculated from a V vs. S plots using nonlinear regression analysis and the following equation, v=VmaxS/(Km+S), where v is the measured velocity, Vmax is the maximum velocity, S is the substrate concentration. […]

[2] = target: T2, maize endosperm AGPase, evolutionary mutant SH2-E (Zea mays, UniProt P55241+Q84PF5); conditions: cited from earlier work
T2 construct: data of Boehlein et al., 2013

[3] = target: T3, maize endosperm AGPase, large subunit variant RGR (Q96R, D161G, A443R; numbering of SEQ ID NO: 20) (Zea mays, UniProt P55241+Q84PF5, A443R/D161G/Q96R); experiment: Apparent kinetic constants with 3-PGA, 37° C., RGR; type: biochemical; conditions: read-out: ATP Km
T3 sequence (P55241 46-516 A443R/D161G/Q96R): T1 sequence (P55241 46-516 A443R/D161G/I285V/Q96G) with G51R, V240I
T3 sequence (Q84PF5 1-474): T1 sequence (Q84PF5 1-474)
Excerpt: as §1, §2, §3

T2 sequence (P55241 46-516, change not shown, one chain of several): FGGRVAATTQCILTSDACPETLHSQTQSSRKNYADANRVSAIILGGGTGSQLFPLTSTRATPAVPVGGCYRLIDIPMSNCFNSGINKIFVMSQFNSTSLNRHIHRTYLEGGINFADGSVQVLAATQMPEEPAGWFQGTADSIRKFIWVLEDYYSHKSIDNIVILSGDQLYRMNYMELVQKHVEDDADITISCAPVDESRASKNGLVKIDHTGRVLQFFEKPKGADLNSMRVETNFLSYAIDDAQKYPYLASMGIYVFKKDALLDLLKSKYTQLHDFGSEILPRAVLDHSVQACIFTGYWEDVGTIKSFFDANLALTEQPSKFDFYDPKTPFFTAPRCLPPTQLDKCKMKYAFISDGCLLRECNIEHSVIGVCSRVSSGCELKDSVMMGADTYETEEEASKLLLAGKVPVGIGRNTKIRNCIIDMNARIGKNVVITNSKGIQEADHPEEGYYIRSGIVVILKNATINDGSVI

Nc1ncnc2c1ncn2[C@@H]1O[C@H](COP(=O)(O)OP(=O)(O)OP(=O)(O)O)[C@@H](O)[C@H]1O [ATP]
Km [1]: 46 µM
kcat ([2]; absence of 3-PGA): 67.6 s⁻¹
Km ([2]; read-out: ATP Km, absence of 3-PGA): 2530 µM
pKd ([2]; read-out: Kia (dissociation constant for the E-ATP complex), absence of 3-PGA): 2.27
Km [3]: 62 µM
